Assays:
hACMSD (ACMSD1) = hACMSD (ACMSD1) (Homo sapiens (Human), UniProt Q8TDX5); assay: Determination of ACMSD1 inhibition, spectrophotometrical in vitro assay; type: biochemical; conditions: 500 μM
Description: The activity of compounds as inhibitors of ACMSD1 is determined in a spectrophotometrical in vitro assay. The pre-assay mixture is incubated and a compound of Formula (I), Formula (Ia), Formula (Ib), Formula (II), or Formula (III), or a pharmaceutically acceptable salt thereof, and ACMSD1 solution is then added. The effect of ACMS concentration on the enzyme activity is investigated by varying 3-hydroxyanthranilic acid (3OH-HA) concentration in the pre-assay mixture. Kinetic parameters are calculated from the initial velocity data using a Lineweaver-Burk plot.
The activity of compounds 1-19 and 21-23 as inhibitors of ACMSD1 was determined by measuring the conversion of 30H-Anthranilic Acid into product (i.e., ACMS) in a spectrophotometrical in vitro assay.
The pre-assay mixture consisting of 3-hydroxyanthranilic acid (3OH-HA), 3-hydroxyanthranilic acid, 3,4-diOxygenase (HAO), and a dialyzed crude extract of E. coli BL21 (DE3) cells expressing the recombinant enzyme, was incubated at 25° C. with monitoring of the increase in absorbance at 360 nm due to the formation of ACMS from 3OH-HA. After the reaction was completed within ˜2 mins, an aliquot of ACMSD1 solution (prepared and purified from Pichia Pastoris overexpressing the recombinant enzyme) was added, and the decrease in absorbance at 360 nm was followed at 15 second intervals. […]

ACMSD-1 = ACMSD-1 (Homo sapiens (Human), UniProt Q8TDX5); assay: ACMSD-1 modulation in HEK293T cells transiently expressing ACMSD; type: cell-based; conditions: about 50 nM to about 5 uM, 48 hrs to 72 hrs
Description: HEK293T cells are seeded and transfected to transiently express ACMSD. The cells are then stimulated with different concentrations of Compound 1, and then lysed to measure the ACMSD activity in a spectrophotometrical in vitro assay. The amount of the whole protein content in cell lysates is detected by Bradford analysis and used to get the specificity activity of the enzyme normalized in all samples.
HEK293T cells (ATCC) were seeded in six-well plates and transfected using Fugene HD to express transiently ACMSD. 24 hrs post transfection, the cells were stimulated for 48 hrs to 72 hrs with different concentrations of Compound 1 and then lysed to measure the ACMSD activity, by measuring the conversion of 30H-Anthranilic Acid into product (i.e. α-amino-beta-carboxymuconate-ε-semialdehyde, ACMS) in a spectrophotometrical in vitro assay. The amount of the whole protein content in cell lysates was detected by Bradford analysis. This value was used to get the specificity activity of the enzyme normalized in all samples (mU/ml or ΔE/Δt/mg of total protein).
Having determined the optimum stimulation time and transfection protocol cells were stimulated with different concentrations of Compound 1 (about 50 nM to about 5 uM).

SOD2 [1] = assay: Modulation of SOD2 activity in AML-12 cells; type: cell-based, mouse; conditions: 24 hours
Description: Primary hepatocytes or AML-12 cells are lysed and total protein concentration is determined using the Bradford assay. SOD2 activity is determined at indicated times after treatment with a compound of Formula (I), Formula (Ia), Formula (Ib), Formula (II), or Formula (III), or a pharmaceutically acceptable salt thereof, using a SOD Assay Kit. Absorbance is determined and results are expressed in U/ml/mg of protein according to the standard curve and measured protein concentration. […]
Primary hepatocytes or AML-12 cells were then lysed in a 20 mM HEPES buffer (Gibco), pH 7.2, containing 1 mM EGTA (Sigma), 210 mM mannitol (Sigma), and 70 mM sucrose (AMRESCO). Total protein concentration was determined using the Bradford assay (BioRad). SOD-2 activity was determined at indicated times after ACMSD inhibitor treatment by the SOD Assay Kit (Cayman Chemical) according to the manufacturer's instructions. […] Absorbance was determined with a Victor X4 multi-label plate reader (Perkin-Elmer) at 450 nm. Results are expressed in U/ml/mg of protein according to the standard curve and measured protein concentration.

SOD2 [2] = assay: Modulation of SOD2 activity in murine primary hepatocytes; type: cell-based, mouse; conditions: primary murine hepatocytes; 24 hours
Description: Primary hepatocytes or AML-12 cells are lysed and total protein concentration is determined using the Bradford assay. SOD2 activity is determined at indicated times after treatment with a compound of Formula (I), Formula (Ia), Formula (Ib), Formula (II), or Formula (III), or a pharmaceutically acceptable salt thereof, using a SOD Assay Kit. Absorbance is determined and results are expressed in U/ml/mg of protein according to the standard curve and measured protein concentration.
Primary hepatocytes were prepared from 8-12-week-old C57BL/6J mice by collagenase perfusion method. Mouse livers were perfused with Hank's balanced salt solution (HBSS, KCl, 5.4 mM; KH2PO4, 0.45 mM; NaCl, 138 mM; NaHCO3, 4.2 mM; Na2HPO4, 0.34 mM; glucose, 5.5 mM; […]; EGTA, 50 mM; CaCl2, 50 mM; pH 7.4). Livers were then washed at a rate of 5 ml/min through the portal vein. After washing, livers were perfused with collagenase (0.025%) solution. Cell viability was assessed by the trypan blue method. Isolated primary hepatocytes were plated with DMEM medium (Gibco) including 10% FCS, 10 units per ml penicillin and HEPES for buffering. The cells were maintained in culture at 37° C. in a humidified atmosphere of 5% CO2/95% air. After 6-8 hrs of attachment, this medium was replaced with media containing different concentrations of an ACMSD inhibitor (i.e., Compound 1 or Compound 17) or with the corresponding concentration of DMSO (as a control). Primary hepatocytes were harvested about 24 hrs later if not indicated differently.
Primary hepatocytes or AML-12 cells were then lysed in a 20 mM HEPES buffer (Gibco), pH 7.2, containing 1 mM EGTA (Sigma), 210 mM mannitol (Sigma), and 70 mM sucrose (AMRESCO). Total protein concentration was determined using the Bradford assay (BioRad). SOD-2 activity was determined at indicated times after ACMSD inhibitor treatment by the SOD Assay Kit (Cayman Chemical) according to the manufacturer's instructions. In order to specifically detect the SOD2 activity 2 mM potassium cyanide was added to the assay, which inhibited both Cu/Zn-SOD and extracellular SOD, resulting in the detection of only Mn-SOD (SOD-2) activity. Absorbance was determined with a Victor X4 multi-label plate reader (Perkin-Elmer) at 450 nm. Results are expressed in U/ml/mg of protein according to the standard curve and measured protein concentration.

[3] = system: SIRT1-regulated genes (Sod2); assay: RT-qPCR analysis of SIRT1-regulated genes in AML-12 cells; type: cell-based, mouse; conditions: 24 hrs
Description: (§1) Cells (AML-12, Hepa-1.6, HEK-293, primary human and murine hepatocytes) are treated with different concentrations of a compound of Formula (I), Formula (Ia), Formula (Ib), Formula (II), or Formula (III), or a pharmaceutically acceptable salt thereof and the gene expression of ACMSD, Pgc1a, Sod1, and Sod2 (MnSOD) is determined using RT-qPCR. Total RNA is extracted from cells and the extracted RNA is treated with DNase and used for reverse transcription (RT).
(§2) Gene expression of ACMSD and genes known to be regulated by SIRT1, (an enzyme that is strictly NAD^+ dependent) such as Pgc1a, Sod1, Sod2 (MnSOD), were analysed in AML-12 cells, Hepa-1.6 cells and primary murine hepatocytes treated with Compound 1 or 17.
(§3) Cells (AML-12, Hepa-1.6, HEK-293, primary human and murine hepatocytes) were treated with different concentrations of Compound 1 or Compound 17. Total RNA was extracted from cells using TRIzol (Invitrogen) according to the manufacturer's instructions. The RNA was treated with DNase, and 2 μg of RNA was used for reverse transcription (RT). 50× diluted cDNA was used for RT-quantitative PCR (RT-qPCR) reactions. The RT-qPCR reactions were performed using the Light-Cycler system (Roche Applied Science) and a qPCR Supermix (QIAGEN) with the indicated primers. The average of at least three technical repeats was used for each biological data point.

[4] = system: SIRT1-regulated genes (Sod2); assay: RT-qPCR analysis of SIRT1-regulated genes in Hepa-1.6 cells; type: cell-based; conditions: Hepa-1.6 hepatic cell line; 24 hrs
Description: as §1, §2, §3

AML-12 cells = assay: Cytotoxicity (LDH release, ATP level) in AML-12 cells; type: cell-based, mouse; conditions: 10 nM to 300 μM; 4 hrs; DMSO 1%
Description: (§4) HePG2 and AML-12 cells are seeded and a dose-response of the compound is performed at various concentrations. Cells are stimulated and the supernatant is used to perform LDH release as a measure of necrosis while the cells are lysed to detect ATP levels for determining cell viability.
(§5) Cytotoxicity: 20000 HePG2 and AML-12 cells were seeded in 96 well plate (Viewplate PerkinElmer). Dose-response of the compound in Table 2 was performed using HP D300 digital dispenser, ranging from 10 nM to 300 μM with constant DMSO 1% in medium. Cells were stimulated for 4 hrs at 37° C.; the supernatant was used to perform LDH release (Cytotox-one, Promega) as a measure of necrosis while the cells were lysed to detect ATP level for determining cell viability (Celltiter-glo, Promega) according to manufacturer's instructions.

HePG2 cells = assay: Cytotoxicity (LDH release, ATP level) in HePG2 cells; type: cell-based; conditions: 10 nM to 300 μM; 4 hrs; DMSO 1%
Description: as §4, §5

hERG potassium channel = hERG potassium channel (Homo sapiens (Human), UniProt Q12809); assay: Predictor hERG assay, fluorescence polarization tracer displacement; conditions: hERG channel affinity binding; DMSO 1%
From the text: The Predictor hERG assay kit is stably transfected with hERG potassium channel and a high-affinity red fluorescent hERG channel ligand and is used for the determination of hERG channel affinity binding of compounds of Formula (I), Formula (Ia), Formula (Ib), Formula (II), or Formula (III), or a pharmaceutically acceptable salt thereof. Compounds that bind to the hERG channel protein (competitors) are identified by their ability to displace the tracer which results in a lower fluorescence polarization.
The Predictor hERG assay kit (Invitrogen), containing membrane preparations from Chinese hamster ovary cells stably transfected with hERG potassium channel and a high-affinity red fluorescent hERG channel ligand (tracer), was used for the determination of hERG channel affinity binding of the test compounds in Table 2. Compounds that bind to the hERG channel protein (competitors) were identified by their ability to displace the tracer, resulting in a lower fluorescence polarization. The final concentration of DMSO in each well was maintained at 1%. The assays were performed according to the manufacturer's protocol (Invitrogen).

FoxO1 = FoxO1 phosphorylation levels in AML-12 cells (western blot); type: cell-based, mouse; conditions: 24 hours, FIG. 6
Description: AML-12 cells are treated with different concentrations of a compound of Formula (I), Formula (Ia), Formula (Ib), Formula (II), or Formula (III), or a pharmaceutically acceptable salt thereof. Cells are then lysed, and analyzed by SDS-PAGE/western blot. Blocking and antibody incubations are then done and each protein present is detected with its specific antibody.
AML-12 cells were treated with different concentrations of Compound 1 or Compound 17 for 24 hours. Cells were then lysed in lysis buffer (50 mM Tris, 150 mM KCl, EDTA 1 mM, NP40 1%) containing protease and phosphatase inhibitors, and analyzed by SDS-PAGE/western blot. Blocking and antibody incubations were done in 5% milk. Each protein present was detected with its specific antibody. Tubulin antibody was obtained from Sigma Inc, FoxO1 and phopho-FoxO1 (Ser256) antibodies were obtained from Cell Signaling. Antibody detection reactions were developed by enhanced chemiluminescence (Advansta, Calif., USA) using x-ray films.

Chain of hERG potassium channel (Q12809 whole entry): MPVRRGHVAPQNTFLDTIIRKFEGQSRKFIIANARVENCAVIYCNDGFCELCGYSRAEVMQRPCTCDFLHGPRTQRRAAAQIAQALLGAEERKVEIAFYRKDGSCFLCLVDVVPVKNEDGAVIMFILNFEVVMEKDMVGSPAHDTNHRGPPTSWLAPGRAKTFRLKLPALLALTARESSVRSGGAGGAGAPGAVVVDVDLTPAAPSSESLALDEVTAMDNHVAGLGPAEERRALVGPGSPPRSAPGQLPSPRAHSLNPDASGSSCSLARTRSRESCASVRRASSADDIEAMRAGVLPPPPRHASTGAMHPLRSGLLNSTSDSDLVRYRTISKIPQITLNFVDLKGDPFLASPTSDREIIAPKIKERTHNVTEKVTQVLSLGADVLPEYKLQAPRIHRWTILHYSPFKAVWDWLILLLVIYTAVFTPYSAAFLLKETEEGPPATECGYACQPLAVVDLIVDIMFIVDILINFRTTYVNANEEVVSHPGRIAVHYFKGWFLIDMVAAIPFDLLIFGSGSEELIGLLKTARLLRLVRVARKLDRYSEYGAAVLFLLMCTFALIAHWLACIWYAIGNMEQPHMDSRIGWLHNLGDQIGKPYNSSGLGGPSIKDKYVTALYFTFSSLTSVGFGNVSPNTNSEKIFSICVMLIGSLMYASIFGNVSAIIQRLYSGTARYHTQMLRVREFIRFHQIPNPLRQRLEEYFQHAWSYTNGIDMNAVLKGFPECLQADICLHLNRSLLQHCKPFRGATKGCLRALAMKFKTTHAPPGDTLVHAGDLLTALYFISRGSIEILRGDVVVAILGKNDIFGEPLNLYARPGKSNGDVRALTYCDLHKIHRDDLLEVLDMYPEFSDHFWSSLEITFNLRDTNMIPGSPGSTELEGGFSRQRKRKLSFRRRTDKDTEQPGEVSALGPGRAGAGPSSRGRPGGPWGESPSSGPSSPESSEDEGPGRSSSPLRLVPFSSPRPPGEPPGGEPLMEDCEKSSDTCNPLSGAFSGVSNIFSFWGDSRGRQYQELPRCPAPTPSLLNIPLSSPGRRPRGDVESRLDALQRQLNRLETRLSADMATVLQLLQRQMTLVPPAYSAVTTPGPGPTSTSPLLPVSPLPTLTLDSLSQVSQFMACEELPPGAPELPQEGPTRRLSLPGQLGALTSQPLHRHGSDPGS
Chain of hACMSD (ACMSD1) (Q8TDX5 whole entry): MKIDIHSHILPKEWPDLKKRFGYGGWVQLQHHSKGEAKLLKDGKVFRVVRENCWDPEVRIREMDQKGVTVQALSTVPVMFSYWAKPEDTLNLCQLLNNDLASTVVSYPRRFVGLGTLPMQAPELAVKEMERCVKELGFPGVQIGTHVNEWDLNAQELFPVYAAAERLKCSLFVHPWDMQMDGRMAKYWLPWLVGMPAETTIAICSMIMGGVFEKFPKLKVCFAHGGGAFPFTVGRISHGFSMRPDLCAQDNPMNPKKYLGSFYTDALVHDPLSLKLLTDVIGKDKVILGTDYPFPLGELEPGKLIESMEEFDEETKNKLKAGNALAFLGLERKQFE
Chain of ACMSD-1 (Q8TDX5 whole entry): as above

Compound	inhibition of purified ACMSD-1 enzyme (hACMSD (ACMSD1)) [%]	ACMSD-1 activity in over-expression cell-based assay (ACMSD-1)	SOD2 activity (SOD2 [1])	SOD2 activity (SOD2 [2])	Sod2 mRNA levels [3]	Sod2 mRNA levels [4]	Cytotoxicity AML-12 (AML-12 cells)	Cytotoxicity Hep-G2 (HePG2 cells)	hERG (hERG potassium channel)	FoxO1 phosphorylation at Ser256 (FoxO1)
CCCCC(CC)COC(=O)c1ccccc1C(=O)O (stereo not shown) [MEHP, mono-(2-ethylhexyl)phthalate]	70	–	–	–	–	–	–	–	–	–
N#Cc1c(-c2ccccc2)nc(SCc2cccc(C(=O)O)c2)[nH]c1=O [Compound 1]	–	inhibited ACMSD-1 activity, in a dose dependent manner	induced in a dose-dependent manner	induced in a dose-dependent manner	increased in a dose-dependent manner	increased in a dose-dependent manner	Not Toxic	Not Toxic	No Activity	decrease in FoxO1 phosphorylation at Ser256 with increasing dose

Source: patent publication US9708272B2, “Inhibitors of α-amino-β-carboxymuconic acid semialdehyde decarboxylase” (TES Pharma S.r.l., priority 2014, dated 2017)
